US20250188032A1, “NITROGEN-CONTAINING HETEROCYCLIC COMPOUNDS AND USES THEREOF” (BNH RESEARCH CO., LTD., priority 2022, published 2025)

Columns and labels:
Test in all cases: HDAC catalytic activity, fluorogenic substrate
Format in all cases: biochemical
Conditions in all cases: 10-dose, 3-fold serial dilution starting at 100 μM, duplicates
HDAC6 = target: T1, HDAC6 (Homo sapiens, UniProt Q9UBN7)
T1 sequence (Q9UBN7 1-1215): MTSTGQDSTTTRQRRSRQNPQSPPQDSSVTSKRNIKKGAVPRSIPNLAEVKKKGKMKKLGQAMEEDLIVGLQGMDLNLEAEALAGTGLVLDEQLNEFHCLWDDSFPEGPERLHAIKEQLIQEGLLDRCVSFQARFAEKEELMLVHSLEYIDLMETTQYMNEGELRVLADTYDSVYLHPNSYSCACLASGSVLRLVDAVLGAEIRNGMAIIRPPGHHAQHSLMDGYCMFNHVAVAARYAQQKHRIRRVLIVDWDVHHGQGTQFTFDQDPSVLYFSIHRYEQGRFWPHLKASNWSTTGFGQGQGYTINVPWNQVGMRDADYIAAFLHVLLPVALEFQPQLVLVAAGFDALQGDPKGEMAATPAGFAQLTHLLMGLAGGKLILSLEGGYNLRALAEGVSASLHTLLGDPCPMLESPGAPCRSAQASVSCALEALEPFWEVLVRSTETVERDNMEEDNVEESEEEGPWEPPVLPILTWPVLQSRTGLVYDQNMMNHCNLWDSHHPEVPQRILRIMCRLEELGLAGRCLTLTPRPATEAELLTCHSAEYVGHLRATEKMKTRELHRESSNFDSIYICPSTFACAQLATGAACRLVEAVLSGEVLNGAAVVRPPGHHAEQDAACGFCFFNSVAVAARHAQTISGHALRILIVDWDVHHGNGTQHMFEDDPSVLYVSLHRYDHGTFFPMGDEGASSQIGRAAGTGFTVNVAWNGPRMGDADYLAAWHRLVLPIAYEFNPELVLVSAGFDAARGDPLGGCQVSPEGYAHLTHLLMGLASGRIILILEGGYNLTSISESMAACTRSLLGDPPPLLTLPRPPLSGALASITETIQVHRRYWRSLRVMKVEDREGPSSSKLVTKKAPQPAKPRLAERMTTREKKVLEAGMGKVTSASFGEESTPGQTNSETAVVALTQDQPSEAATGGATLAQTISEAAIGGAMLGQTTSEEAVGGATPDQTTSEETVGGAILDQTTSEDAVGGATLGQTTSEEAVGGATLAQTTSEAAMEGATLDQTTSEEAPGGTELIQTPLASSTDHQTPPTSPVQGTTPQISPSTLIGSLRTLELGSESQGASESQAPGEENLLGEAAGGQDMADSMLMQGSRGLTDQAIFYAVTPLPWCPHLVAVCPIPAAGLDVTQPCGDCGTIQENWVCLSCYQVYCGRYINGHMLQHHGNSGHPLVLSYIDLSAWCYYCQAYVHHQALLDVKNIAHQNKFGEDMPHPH
Experimental: (§1) The compound (racemate) was resuspended in 100 mM DMSO and tested in a 10-dose IC50 with 3-fold serial dilution starting at 100 μM against HDACs 1-9, and 11. As reference compounds, Trichostatin A (TSA) and TMP269 were tested in a 10-dose IC50 with 3-fold serial dilution starting at 10 μM or 1 μM.
(§2) 10 μM Fluorogenic peptide from p53 residues 379-382 (RHKK(Ac)AMC) was used for the substrate for HDAC 1, 2, 3, and 6, 50 μM Fluorogenic HDAC Class2a Substrate (Trifluoroacetyl Lysine) was used for the substrate for HDAC 4, 5, 7, 9, and 11, 100 μM Fluorogenic peptide from p53 residues 379-382 (RHK(Ac)K(Ac)AMC) was used for the substrate for HDAC8.
(§3) IC50 values were calculated using the GraphPad Prism 4 program based on a sigmoidal dose-response equation and the blank (DMSO) value concentration was entered as 1.00E-12 M for curve fitting.

HDAC9 = HDAC9 (Homo sapiens, UniProt Q9UKV0)
Experimental: as §1, §2, §3

HDAC8 = target: T2, HDAC8 (Homo sapiens, UniProt Q9BY41)
T2 sequence (Q9BY41 1-377): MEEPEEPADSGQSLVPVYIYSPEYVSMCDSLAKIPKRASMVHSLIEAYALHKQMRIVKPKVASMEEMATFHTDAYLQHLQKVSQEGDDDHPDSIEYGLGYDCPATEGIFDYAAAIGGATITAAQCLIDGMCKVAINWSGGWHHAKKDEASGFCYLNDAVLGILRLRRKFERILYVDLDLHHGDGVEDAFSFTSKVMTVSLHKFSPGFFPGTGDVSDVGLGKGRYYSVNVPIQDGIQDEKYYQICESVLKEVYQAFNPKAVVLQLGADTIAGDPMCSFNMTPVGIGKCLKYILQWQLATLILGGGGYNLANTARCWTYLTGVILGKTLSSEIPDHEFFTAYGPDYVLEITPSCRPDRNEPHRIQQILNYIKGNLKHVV
Experimental: as §1, §2, §3

HDAC2 = HDAC2 (Homo sapiens, UniProt Q92769)
Experimental: as §1, §2, §3

HDAC5 = HDAC5 (Homo sapiens, UniProt Q9UQL6)
Experimental: as §1, §2, §3

HDAC11 = target: T3, HDAC11 (Homo sapiens, UniProt Q96DB2)
T3 sequence (Q96DB2 1-347): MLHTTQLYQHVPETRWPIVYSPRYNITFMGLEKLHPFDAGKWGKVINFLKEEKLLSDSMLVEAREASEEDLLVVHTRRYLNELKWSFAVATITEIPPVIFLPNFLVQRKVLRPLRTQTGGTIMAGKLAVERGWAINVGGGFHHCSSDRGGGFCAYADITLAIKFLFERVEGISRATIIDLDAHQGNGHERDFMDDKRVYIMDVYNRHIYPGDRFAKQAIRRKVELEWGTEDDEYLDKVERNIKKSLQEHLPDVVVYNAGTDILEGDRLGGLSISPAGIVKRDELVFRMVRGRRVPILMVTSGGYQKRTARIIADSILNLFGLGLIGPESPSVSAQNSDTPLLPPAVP
Experimental: as §1, §2, §3

HDAC2, sequence (Q92769 whole entry): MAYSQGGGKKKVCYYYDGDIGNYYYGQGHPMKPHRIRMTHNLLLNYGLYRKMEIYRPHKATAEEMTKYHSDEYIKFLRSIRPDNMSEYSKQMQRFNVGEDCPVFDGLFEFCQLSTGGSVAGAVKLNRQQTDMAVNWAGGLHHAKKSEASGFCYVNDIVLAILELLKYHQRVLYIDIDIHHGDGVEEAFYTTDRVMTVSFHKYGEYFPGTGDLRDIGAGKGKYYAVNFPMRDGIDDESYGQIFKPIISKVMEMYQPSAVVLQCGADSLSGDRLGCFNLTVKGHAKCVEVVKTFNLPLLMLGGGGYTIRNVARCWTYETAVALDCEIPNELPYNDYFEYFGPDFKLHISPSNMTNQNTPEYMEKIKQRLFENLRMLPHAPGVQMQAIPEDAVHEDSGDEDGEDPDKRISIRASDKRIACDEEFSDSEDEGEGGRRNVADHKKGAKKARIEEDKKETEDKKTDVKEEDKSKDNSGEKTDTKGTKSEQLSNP
HDAC9, sequence (Q9UKV0 whole entry): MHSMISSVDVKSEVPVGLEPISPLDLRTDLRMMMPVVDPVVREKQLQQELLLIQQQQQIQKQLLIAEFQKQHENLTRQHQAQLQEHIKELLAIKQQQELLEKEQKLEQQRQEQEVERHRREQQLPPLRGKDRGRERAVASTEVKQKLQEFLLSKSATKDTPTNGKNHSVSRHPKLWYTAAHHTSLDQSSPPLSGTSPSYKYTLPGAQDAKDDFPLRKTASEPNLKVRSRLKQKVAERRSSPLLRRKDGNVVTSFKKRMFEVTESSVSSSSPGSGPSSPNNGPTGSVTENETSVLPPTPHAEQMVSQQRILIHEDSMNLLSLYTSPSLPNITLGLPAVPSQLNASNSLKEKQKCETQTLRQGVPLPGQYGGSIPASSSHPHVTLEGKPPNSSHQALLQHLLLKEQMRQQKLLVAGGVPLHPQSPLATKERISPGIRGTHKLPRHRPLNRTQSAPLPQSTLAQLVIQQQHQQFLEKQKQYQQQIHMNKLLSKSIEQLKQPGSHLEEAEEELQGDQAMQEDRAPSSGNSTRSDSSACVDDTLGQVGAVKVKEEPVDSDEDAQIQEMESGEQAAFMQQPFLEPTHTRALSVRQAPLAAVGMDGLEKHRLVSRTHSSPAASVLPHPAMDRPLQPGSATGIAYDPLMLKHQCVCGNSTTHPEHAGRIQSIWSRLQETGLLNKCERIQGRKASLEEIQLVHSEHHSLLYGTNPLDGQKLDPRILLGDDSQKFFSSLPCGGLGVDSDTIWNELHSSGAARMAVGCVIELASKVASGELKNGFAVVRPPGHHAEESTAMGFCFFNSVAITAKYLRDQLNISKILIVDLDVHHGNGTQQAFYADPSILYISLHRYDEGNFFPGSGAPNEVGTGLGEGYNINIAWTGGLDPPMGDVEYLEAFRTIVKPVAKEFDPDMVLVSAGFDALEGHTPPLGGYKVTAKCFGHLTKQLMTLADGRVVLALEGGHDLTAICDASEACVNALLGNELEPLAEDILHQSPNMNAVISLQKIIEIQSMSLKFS
HDAC5, sequence (Q9UQL6 whole entry, species assumed): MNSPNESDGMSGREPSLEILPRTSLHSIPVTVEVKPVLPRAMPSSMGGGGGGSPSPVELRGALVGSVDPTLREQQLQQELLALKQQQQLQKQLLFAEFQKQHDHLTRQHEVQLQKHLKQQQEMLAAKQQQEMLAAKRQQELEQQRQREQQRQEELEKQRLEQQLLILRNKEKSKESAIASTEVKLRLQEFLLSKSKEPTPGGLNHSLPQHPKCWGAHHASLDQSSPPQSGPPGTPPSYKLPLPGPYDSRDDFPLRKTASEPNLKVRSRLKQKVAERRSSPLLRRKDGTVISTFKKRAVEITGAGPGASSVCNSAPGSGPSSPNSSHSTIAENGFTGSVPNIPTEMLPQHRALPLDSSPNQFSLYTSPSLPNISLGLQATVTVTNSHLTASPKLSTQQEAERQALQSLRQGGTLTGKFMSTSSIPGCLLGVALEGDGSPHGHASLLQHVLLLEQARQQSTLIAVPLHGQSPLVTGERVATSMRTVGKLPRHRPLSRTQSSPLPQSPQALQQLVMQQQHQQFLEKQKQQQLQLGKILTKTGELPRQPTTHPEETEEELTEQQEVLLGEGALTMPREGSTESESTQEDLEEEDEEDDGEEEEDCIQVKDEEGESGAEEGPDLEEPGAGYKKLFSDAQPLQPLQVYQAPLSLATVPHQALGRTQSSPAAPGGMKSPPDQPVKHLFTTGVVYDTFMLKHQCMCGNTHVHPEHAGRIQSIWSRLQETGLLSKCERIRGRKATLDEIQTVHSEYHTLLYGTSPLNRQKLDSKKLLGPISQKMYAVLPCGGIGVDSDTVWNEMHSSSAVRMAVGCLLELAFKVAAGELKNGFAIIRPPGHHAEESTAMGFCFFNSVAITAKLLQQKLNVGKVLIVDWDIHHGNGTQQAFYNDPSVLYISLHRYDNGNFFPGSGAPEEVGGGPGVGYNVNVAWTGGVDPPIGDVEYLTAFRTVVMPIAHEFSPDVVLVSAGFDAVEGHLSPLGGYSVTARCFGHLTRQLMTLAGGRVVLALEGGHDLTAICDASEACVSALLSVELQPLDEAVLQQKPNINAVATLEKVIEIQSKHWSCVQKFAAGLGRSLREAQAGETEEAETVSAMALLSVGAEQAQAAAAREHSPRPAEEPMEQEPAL

CC1CCC(C(=O)O)CN1C(=O)Cc1ccc(F)cc1Cl (racemic) [BnH12001, 1-(2-(2-chloro-4-fluorophenyl)acetyl)-6-methylpiperidine-3-carboxylic acid]
did not show any inhibitory effect: Inhibitory effect on HDAC6 catalytic activity (HDAC6) | Inhibitory effect on HDAC9 catalytic activity (HDAC9) | Inhibitory effect on HDAC8 catalytic activity (HDAC8) | Inhibitory effect on HDAC2 catalytic activity (HDAC2) | Inhibitory effect on HDAC5 catalytic activity (HDAC5) | Inhibitory effect on HDAC11 catalytic activity (HDAC11)
